Test system: NOMO1
Experiment: cell viability relative to DMSO control; higher = less cytotoxic
Conditions: 48 h
In short: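 Leukemia cells (NOMO1 or SEM, 500 cells/well; P12-Ichikawa, 1000 cells/well) were seeded in 5 μl in 1536-well plates after at least four passages of adaptation to each medium. They received library compounds in DMSO by pin dosing, 11 threefold points from 47 μM to 0.79 nM. Luminescence with CellTiter-Glo One was read after 48 h at 37°C. Viability is stated per plate relative to DMSO wells, with cell-free wells as background.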

[1] = RPMI 5 mM glucose + 10% FBS, 0.000781 µM
[2] = RPMI 5 mM glucose + 10% FBS, 0.00234 µM
[3] = RPMI 5 mM glucose + 10% FBS, 0.00702 µM
[4] = RPMI 5 mM glucose + 10% FBS, 0.0211 µM
[5] = RPMI 5 mM glucose + 10% FBS, 0.0632 µM
[6] = RPMI 5 mM glucose + 10% FBS, 0.19 µM
[7] = RPMI 5 mM glucose + 10% FBS, 0.569 µM
[8] = RPMI 5 mM glucose + 10% FBS, 1.71 µM
[9] = RPMI 5 mM glucose + 10% FBS, 5.12 µM
[10] = RPMI 5 mM glucose + 10% FBS, 15.4 µM
[11] = RPMI 5 mM glucose + 10% FBS, 46.1 µM
[12] = HPLM + 10% dialyzed FBS, 0.000781 µM
[13] = HPLM + 10% dialyzed FBS, 0.00234 µM
[14] = HPLM + 10% dialyzed FBS, 0.00702 µM
[15] = HPLM + 10% dialyzed FBS, 0.0211 µM
[16] = HPLM + 10% dialyzed FBS, 0.0632 µM
[17] = HPLM + 10% dialyzed FBS, 0.19 µM
[18] = HPLM + 10% dialyzed FBS, 0.569 µM
[19] = HPLM + 10% dialyzed FBS, 1.71 µM
[20] = HPLM + 10% dialyzed FBS, 5.12 µM
[21] = HPLM + 10% dialyzed FBS, 15.4 µM
[22] = HPLM + 10% dialyzed FBS, 46.1 µM
[23] = RPMI 5 mM glucose + 10% dialyzed FBS, 0.000781 µM
[24] = RPMI 5 mM glucose + 10% dialyzed FBS, 0.00234 µM
[25] = RPMI 5 mM glucose + 10% dialyzed FBS, 0.00702 µM
[26] = RPMI 5 mM glucose + 10% dialyzed FBS, 0.0211 µM
[27] = RPMI 5 mM glucose + 10% dialyzed FBS, 0.0632 µM
[28] = RPMI 5 mM glucose + 10% dialyzed FBS, 0.19 µM
[29] = RPMI 5 mM glucose + 10% dialyzed FBS, 0.569 µM
[30] = RPMI 5 mM glucose + 10% dialyzed FBS, 1.71 µM
[31] = RPMI 5 mM glucose + 10% dialyzed FBS, 5.12 µM
[32] = RPMI 5 mM glucose + 10% dialyzed FBS, 15.4 µM
[33] = RPMI 5 mM glucose + 10% dialyzed FBS, 46.1 µM

Row | SMILES | cell viability [1] [%] | cell viability [2] [%] | cell viability [3] [%] | cell viability [4] [%] | cell viability [5] [%] | cell viability [6] [%] | cell viability [7] [%] | cell viability [8] [%] | cell viability [9] [%] | cell viability [10] [%] | cell viability [11] [%] | cell viability [12] [%] | cell viability [13] [%] | cell viability [14] [%] | cell viability [15] [%] | cell viability [16] [%] | cell viability [17] [%] | cell viability [18] [%] | cell viability [19] [%] | cell viability [20] [%] | cell viability [21] [%] | cell viability [22] [%] | cell viability [23] [%] | cell viability [24] [%] | cell viability [25] [%] | cell viability [26] [%] | cell viability [27] [%] | cell viability [28] [%] | cell viability [29] [%] | cell viability [30] [%] | cell viability [31] [%] | cell viability [32] [%] | cell viability [33] [%]
1 | COc1ccc(Cn2ccc3ccc(C(=O)NO)cc32)cc1 | 107 | 121 | 115 | 128 | 124 | 123 | 130 | 137 | 124 | 130 | 128 |  |  |  |  |  |  |  |  |  |  |  |  |  |  |  |  |  |  |  |  |  | 
2 | CCCn1c(=O)c2[nH]c(C34CC5CC3C[C@@H](C5)C4)nc2n(CCC)c1=O | 90.5 | 92.6 | 102 | 96.5 | 87.4 | 91.5 | 86.5 | 97.2 | 90.3 | 89.9 | 95.5 | 105 | 62.9 | 92.9 | 112 | 96.2 | 125 | 104 | 105 | 107 | 99.5 | 114 | 99 | 89.2 | 92.9 | 95.5 | 107 | 98.2 | 94.3 | 95.6 | 101 | 94.8 | 100
3 | COc1ccc([C@@H]2CNC(=O)C2)cc1OC1CCCC1 | 112 | 111 | 106 | 96.7 | 114 | 107 | 104 | 112 | 99.7 | 105 | 107 | 106 | 108 | 108 | 111 | 117 | 114 | 136 | 114 | 117 | 118 | 116 | 92.6 | 101 | 119 | 105 | 114 | 115 | 105 | 115 | 112 | 105 | 119
4 | CN1C(=O)COc2c(C(=O)NC3CN4CCC3CC4)cc(Cl)cc21 (stereo not given) | 90.2 | 106 | 94.2 | 88.8 | 110 | 109 | 99 | 92.1 | 90.6 | 105 | 85.6 | 68.8 | 121 | 112 | 107 | 105 | 104 | 119 | 109 | 104 | 111 | 108 | 104 | 102 | 106 | 93.2 | 97.1 | 91.6 | 97.6 | 89.7 | 90.5 | 85.8 | 97.7
5 | CC1(C)CC(=O)c2c(C(F)(F)F)nn(-c3ccc(C(N)=O)c(NC4CCC(OC(=O)CN)CC4)c3)c2C1 (stereo not given) | 92.5 | 110 | 92.4 | 92.9 | 84.2 | 88.9 | 20.6 | 11.2 | 9.75 | 9.88 | 11.1 | 94.8 | 92.8 | 104 | 99 | 102 | 84.5 | 27.3 | 17.8 | 13.5 | 17.5 | 15.7 | 94.4 | 103 | 109 | 93.2 | 89.2 | 76 | 21.3 | 15.8 | 13.4 | 14.1 | 15.9
6 | Cc1cnc(Nc2ccc(OCCN3CCCC3)cc2)nc1Nc1cccc([S+](=O)([O-])NC(C)(C)C)c1 | 105 | 107 | 104 | 90.3 | 108 | 110 | 98 | 97.3 | 114 | 92.7 | 102 | 78.8 | 102 | 109 | 116 | 117 | 126 | 102 | 114 | 110 | 100 | 84.3 | 87.5 | 106 | 99.6 | 105 | 100 | 102 | 103 | 102 | 103 | 102 | 100
7 | N=C(N)c1ccc(OCCCCCOc2ccc(C(=N)N)cc2)cc1 | 100 | 114 | 113 | 108 | 113 | 92.2 | 116 | 107 | 93.6 | 84.8 | 47.7 | 111 | 105 | 113 | 121 | 130 | 133 | 104 | 104 | 110 | 75.8 | 46.6 | 91.6 | 101 | 121 | 115 | 114 | 107 | 108 | 98.6 | 98.3 | 70.6 | 49.2
8 | COc1ccc2cc(-c3[nH]c(-c4ccc([S+](C)[O-])cc4)nc3-c3ccncc3)ccc2c1 (stereo not given) | 100 | 103 | 114 | 113 | 114 | 99.1 | 107 | 111 | 108 | 110 | 134 | 115 | 118 | 124 | 118 | 136 | 143 | 148 | 126 | 120 | 143 | 111 | 111 | 98.5 | 106 | 118 | 121 | 113 | 130 | 123 | 127 | 150 | 119
9 | Cc1ccccc1C(C(=O)NC1CCCCC1)N(C(=O)CNc1ccc(C#N)cc1)c1cccc(F)c1 (stereo not given) | 77.2 | 88.5 | 94.5 | 87.7 | 103 | 94 | 93.7 | 100 | 89.6 | 90.1 | 87.3 | 103 | 111 | 115 | 106 | 98.3 | 111 | 112 | 99.4 | 114 | 84.2 | 82.8 | 71.9 | 110 | 140 | 142 | 98.5 | 84.7 | 88.2 | 70.1 | 80.3 | 97 | 76.9
10 | Cl.Cl.Fc1ccc(C(OCCN2CCN(CCCc3ccccc3)CC2)c2ccc(F)cc2)cc1 | 119 | 116 | 116 | 119 | 111 | 109 | 117 | 113 | 108 | 116 | 18.5 | 120 | 113 | 127 | 125 | 139 | 123 | 127 | 130 | 104 | 93.1 | 11.3 | 113 | 129 | 113 | 126 | 123 | 135 | 112 | 118 | 122 | 96.4 | 12.9
11 | COc1cc(/C=C/C(=O)CC(=O)/C=C/c2ccc(O)c(OC)c2)ccc1O | 97.4 | 93.6 | 103 | 108 | 106 | 105 | 102 | 115 | 102 | 73.2 | 7.35 | 105 | 105 | 118 | 111 | 112 | 123 | 114 | 115 | 99.8 | 42.3 | 5.01 | 105 | 105 | 106 | 106 | 118 | 112 | 104 | 104 | 101 | 79.9 | 10.1
12 | N/C(=N\C(=O)c1nc(Cl)c(N)nc1N)NCc1ccccc1 | 80.5 | 92.8 | 83.7 | 88.3 | 93.5 | 89 | 99 | 87.8 | 92.8 | 72.4 | 28.5 | 81 | 99.5 | 90.7 | 118 | 108 | 108 | 109 | 109 | 97.6 | 76.2 | 36.9 | 83.1 | 97 | 96.2 | 90.8 | 104 | 100 | 107 | 111 | 87.4 | 84.2 | 49.1
13 | Cn1cc(-c2ccc3ncc(Cc4ccc5ncccc5c4)n3n2)cn1 | 99.2 | 108 | 102 | 96.4 | 115 | 110 | 118 | 111 | 102 | 97.6 | 102 | 102 | 96.5 | 99.8 | 110 | 100 | 102 | 111 | 120 | 110 | 105 | 91.7 | 84.9 | 110 | 97.4 | 112 | 105 | 105 | 114 | 110 | 99 | 94.4 | 99.7
14 | O=C1c2cccc(O)c2C(=O)c2c(O)cc(CO)cc21 | 96.8 | 92.5 | 92.1 | 91.9 | 87.1 | 88.3 | 90.6 | 92.8 | 81.9 | 85.5 | 78.9 | 89.5 | 109 | 87.5 | 89.8 | 98.5 | 81.8 | 82.5 | 86.5 | 81.9 | 75.8 | 76.8 | 97.8 | 106 | 104 | 95.4 | 100 | 93.1 | 102 | 79.7 | 85.2 | 94.5 | 94.3
15 | NC12CC3CC(CC(C3)C1)C2 | 102 | 102 | 102 | 101 | 97 | 108 | 98.2 | 94.5 | 99.1 | 98.5 | 104 | 108 | 104 | 102 | 103 | 138 | 121 | 111 | 106 | 101 | 96.4 | 88.5 | 95.3 | 95.8 | 108 | 97.8 | 93.1 | 105 | 103 | 96 | 88.3 | 97 | 81
16 | CN(C)[C@H]\1[C@@H]2[C@@H](O)[C@@H]\3C(=C)C4=C(C(=CC=C4)O)C(=O)C3=C(\O)[C@@]2(O)C(=O)\C(=C1O)C(N)=O |  |  |  |  |  |  |  |  |  |  |  | 130 | 120 | 122 | 128 | 135 | 110 | 111 | 127 | 103 | 107 | 121 | 127 | 119 | 121 | 121 | 116 | 112 | 121 | 125 | 111 | 124 | 123

Source: the supplement of paper PMC11451515
